# From BindingDB's records for doi:10.1021/jm00075a013 (Ciba-Geigy, 1994)
# pIC50: −log10 of the molar value.
# How the values were obtained:
# [1] = molecular target: Arachidonate 5-lipoxygenase (Cavia porcellus); assay: In vitro inhibitory activity against 5-lipoxygenase by reduction of 5-hydroxyeicosatetraenoic acid (5-HETE) formed in guinea pig polymorphonuclear leukocytes (PMNs).
# [2] = molecular target: Arachidonate 5-lipoxygenase (Cavia porcellus); assay: In vitro inhibitory activity against 5-lipoxygenase by reduction of LTB4 formed in guinea pig polymorphonuclear leukocytes (PMNs).
# [3] = molecular target: Thromboxane-A synthase (Homo sapiens) (UniProt P24557); assay: Inhibitory concentration against human platelet thromboxane synthetase
# [4] = molecular target: Arachidonate 5-lipoxygenase (Cavia porcellus); assay: In vitro inhibitory activity against 5-lipoxygenase by reduction of 5-hydroxyeicosatetraenoic acid (5-HETE) formed in guinea pig polymorphonuclear leukocytes (PMNs).; remark: listed apart in the source
# Sequence of Thromboxane-A synthase (Homo sapiens) (P24557 whole entry, looked up): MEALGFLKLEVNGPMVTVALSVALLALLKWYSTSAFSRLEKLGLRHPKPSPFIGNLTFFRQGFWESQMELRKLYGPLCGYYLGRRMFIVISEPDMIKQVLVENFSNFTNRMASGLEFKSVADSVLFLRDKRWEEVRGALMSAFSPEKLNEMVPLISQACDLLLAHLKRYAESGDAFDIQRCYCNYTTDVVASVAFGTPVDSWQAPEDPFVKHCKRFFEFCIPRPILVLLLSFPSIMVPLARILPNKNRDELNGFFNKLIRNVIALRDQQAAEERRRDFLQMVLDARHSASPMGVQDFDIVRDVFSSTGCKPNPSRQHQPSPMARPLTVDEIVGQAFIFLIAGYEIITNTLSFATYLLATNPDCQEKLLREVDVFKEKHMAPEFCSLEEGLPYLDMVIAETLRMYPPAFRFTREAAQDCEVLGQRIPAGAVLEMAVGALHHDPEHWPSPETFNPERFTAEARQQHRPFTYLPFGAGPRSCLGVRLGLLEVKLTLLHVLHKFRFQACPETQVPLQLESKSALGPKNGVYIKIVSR
Structure (SMILES),pIC50 [1],pIC50 [2],pIC50 [3],pIC50 [4]
NC(=O)N(O)CC1=Cc2cc(OCCCc3ccccc3)ccc2OC1,6.89,6.80,–,–
CC(c1cc2ccccc2s1)N(O)C(N)=O (racemic) [Leutrol],–,–,< 4.70,–
C=CCNC(=O)N(O)CC1=Cc2cc(Oc3ccccc3)ccc2OC1 [N'-allyl-N-hydroxy-N-[(6-phenoxy-2H-chromen-3-yl)methyl]urea],–,7.36,–,7.43
NC(=O)N(O)CC1=Cc2cc(OCc3ccccc3)ccc2OC1 [N-(6-Benzyloxy-2H-chromen-3-ylmethyl)-hydroxylurea],–,6.42,–,6.36
NC(=O)N(O)CC1=Cc2cc(OCC3CCCCC3)ccc2OC1 [N-(6-Cyclohexylmethoxy-2H-chromen-3-ylmethyl)-hydroxylurea],–,5.86,–,5.87
CCCCCCOc1ccc2c(c1)C=C(CN(O)C(N)=O)CO2 [N-(6-Hexyloxy-2H-chromen-3-ylmethyl)-hydroxylurea],6.55,6.47,–,–
NC(=O)N(O)CC1=Cc2cc(OCc3ccc(C(F)(F)F)cc3)ccc2OC1 [N-[6-(4-Trifluoromethyl-benzyloxy)-2H-chromen-3-ylmethyl]-hydroxylurea],6.37,6.31,–,–
"CC1(C)Oc2ccc(Oc3ccccc3)cc2C=C1CN(O)C(N)=O [N-[(2,2-dimethyl-6-phenyoxy-2H-chromen-3-yl)methyl]-N-hydroxyurea]",6.51,6.36,–,–
NC(=O)N(O)CC1=Cc2cc(Br)ccc2OC1 [N-[(6-bromo-2H-chromen-3-yl)methyl]-N-hydroxyurea],–,5.85,–,5.85
CC(C)NC(=O)N(O)CC1=Cc2cc(Oc3ccccc3)ccc2OC1 [N-hydroxy-N'-isopropyl-N-[(6-phenoxy-2H-chromen-3-yl)methyl]urea],7.31,7.20,–,–
CC1Oc2ccc(Oc3ccccc3)cc2C=C1CN(O)C(N)=O (stereo not given) [N-hydroxy-N-[(2-methyl-6-phenyoxy-2H-chromen-3-yl)methyl]urea],6.92,7.06,–,–
CCCCNC(=O)N(O)CC1=Cc2cc(Oc3ccccc3)ccc2OC1 [N-hydroxy-N-[(6-phenoxy-2H-chromen-3-yl)methyl]-N'-butylurea],–,7.16,–,7.19
NC(=S)N(O)CC1=Cc2cc(Oc3ccccc3)ccc2OC1 [N-hydroxy-N-[(6-phenoxy-2H-chromen-3-yl)methyl]thiourea],6.74,6.70,–,–
NC(=O)N(O)CC1=Cc2cc(Oc3ccccc3)ccc2OC1 [N-hydroxy-N-[(6-phenoxy-2H-chromen-3-yl)methyl]urea],–,–,< 4.70,–
NC(=O)N(O)CC1=Cc2cc(-c3ccccc3)ccc2OC1 [N-hydroxy-N-[(6-phenyl-2H-chromen-3-yl)methyl]urea],–,6.64,–,6.62
CCCC1Oc2ccc(Oc3ccccc3)cc2C=C1CN(O)C(N)=O (stereo not given) [N-hydroxy-N-[(6-phenyoxy-2-propyl-2H-chromen-3-yl)methyl]urea],6.06,6.06,–,–
"COc1ccc2c(c1)OCC(CN(O)C(N)=O)C2 (stereo not given) [N-hydroxy-N-[(7-methoxy-3,4-dihydro-2H-chromen-3-yl)methyl]urea]",< 5.52,< 5.52,–,–
CNC(=O)N(O)CC1=Cc2cc(Oc3ccc(F)cc3)ccc2OC1 [N-{[6-(4-fluorophenoxy)-2H-chromen-3-yl]methyl}-N-hydroxy-N'-methylurea],–,–,< 4.70,–
CCOC(=O)CNC(=O)N(O)CC1=Cc2cc(Oc3ccccc3)ccc2OC1 [ethyl [({hydroxy[(6-phenoxy-2H-chromen-3-yl)methyl]amino}carbonyl)amino]acetate],–,7.13,–,7.17
